The record followed here is patent publication US10758534B2 (Vertex Pharmaceuticals Incorporated, priority 2014, dated 2020).

The assay concerns the target T1, F508del (Homo sapiens, UniProt P13569, DEL508-508).
T1 construct: expressed in transfected cells
The assay can be described thus: Protocol 2: FRET membrane potential optical assay (VIPR), identification of correction compounds. In kind it is cell-based. Summed up: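 NIH3T3 mouse fibroblasts stably expressing F508del-CFTR incubated with compound 16 h at 37 °C in serum-free medium, then loaded with CC2-DMPE/DiSBAC2(3) FRET dyes. Channel activated with 10 μM forskolin plus 20 μM genistein in Cl⁻-free (gluconate) bath; depolarisation from Cl⁻ efflux read on VIPR II.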

The mark [1] stands for this setting: Table 3, compounds of Table 1 as modulators of CFTR activity, protocol not stated.
Setting [2] is: F508del CFTR modulator activity, compounds of Table 1, read-out: EC30.

Read-outs that look alike come from different tables or passages of the source.

T1 sequence (P13569 with tags, fused parts or gaps DEL508-508): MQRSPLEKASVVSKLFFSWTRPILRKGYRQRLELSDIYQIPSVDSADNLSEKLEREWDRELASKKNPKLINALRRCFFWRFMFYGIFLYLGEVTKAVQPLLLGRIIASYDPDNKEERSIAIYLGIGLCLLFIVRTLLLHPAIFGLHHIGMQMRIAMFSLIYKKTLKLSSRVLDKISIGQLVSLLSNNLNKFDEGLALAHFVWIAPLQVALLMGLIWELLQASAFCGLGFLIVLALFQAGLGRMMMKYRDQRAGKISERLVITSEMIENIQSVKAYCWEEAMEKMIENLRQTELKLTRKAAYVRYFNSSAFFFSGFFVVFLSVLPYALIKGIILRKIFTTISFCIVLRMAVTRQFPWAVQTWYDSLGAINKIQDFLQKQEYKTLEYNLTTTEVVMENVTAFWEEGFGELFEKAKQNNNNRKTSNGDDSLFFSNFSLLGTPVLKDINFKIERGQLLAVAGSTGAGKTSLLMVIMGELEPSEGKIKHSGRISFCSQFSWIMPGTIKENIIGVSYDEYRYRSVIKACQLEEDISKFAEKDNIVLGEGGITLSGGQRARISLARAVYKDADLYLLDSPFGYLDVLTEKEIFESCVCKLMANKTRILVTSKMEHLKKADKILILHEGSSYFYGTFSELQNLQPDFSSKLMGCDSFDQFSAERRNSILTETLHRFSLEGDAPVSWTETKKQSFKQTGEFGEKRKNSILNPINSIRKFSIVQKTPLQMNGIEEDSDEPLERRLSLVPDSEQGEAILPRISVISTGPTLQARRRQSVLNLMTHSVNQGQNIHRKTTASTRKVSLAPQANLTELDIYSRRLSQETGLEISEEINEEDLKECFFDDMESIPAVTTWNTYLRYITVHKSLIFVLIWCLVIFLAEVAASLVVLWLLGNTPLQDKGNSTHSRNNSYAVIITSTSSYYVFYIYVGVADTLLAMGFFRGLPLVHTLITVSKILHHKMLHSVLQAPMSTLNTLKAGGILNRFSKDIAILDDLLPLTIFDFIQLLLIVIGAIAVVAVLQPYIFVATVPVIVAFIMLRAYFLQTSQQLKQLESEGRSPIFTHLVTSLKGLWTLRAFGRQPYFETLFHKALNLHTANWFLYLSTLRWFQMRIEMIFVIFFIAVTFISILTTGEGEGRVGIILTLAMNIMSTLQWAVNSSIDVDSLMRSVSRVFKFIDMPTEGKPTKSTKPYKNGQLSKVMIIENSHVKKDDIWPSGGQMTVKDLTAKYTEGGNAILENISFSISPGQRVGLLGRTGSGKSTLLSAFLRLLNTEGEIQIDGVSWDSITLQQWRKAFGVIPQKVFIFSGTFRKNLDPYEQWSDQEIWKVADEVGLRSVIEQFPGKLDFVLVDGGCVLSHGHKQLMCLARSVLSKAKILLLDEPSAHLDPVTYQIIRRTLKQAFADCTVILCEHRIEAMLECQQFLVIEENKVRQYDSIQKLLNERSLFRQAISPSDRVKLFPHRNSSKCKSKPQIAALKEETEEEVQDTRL

On to `CC(C)Oc1ccc(-c2ccc(C(=O)NS(=O)(=O)c3cccc(N)n3)c(N3CCc4ccccc43)n2)cn1` [Compound 588, N-[(6-amino-2-pyridyl)sulfonyl]-2-indolin-1-yl-6-(6-isopropoxy-3-pyridyl)pyridine-3-carboxamide], for which, under setting [1], the 30% effect concentration (EC30) result is “++ (“++” means between 3 uM and 10 uM)”.

On to `Cc1cc(C)c(Oc2nc(-c3cc(CO)ccc3F)ccc2C(=O)NS(=O)(=O)c2cccc(N)n2)c(C)c1` [Compound 727, N-[(6-amino-2-pyridyl)sulfonyl]-6-[2-fluoro-5-(hydroxymethyl)phenyl]-2-(2,4,6-trimethylphenoxy)pyridine-3-carboxamide], for which the EC30 entry under setting [1] was “+ (“+” means greater than 10 uM)”.

Regarding `CC1CN(c2ncccc2C(=O)NS(=O)(=O)c2cccc(N(C)Cc3ccccc3Cl)n2)C(C)(C)C1` (stereo not drawn) [Compound 2744], the 30% effect concentration (EC30) under setting [2] is below 3 µM.

Consider `CCCCN1CCCN(c2cccc(S(=O)(=O)NC(=O)c3cccnc3N3CC(C)CC3(C)C)n2)CC1` (stereo not drawn) [Compound 2620, N—[[6-(4-butyl-1,4-diazepan-1-yl)-2-pyridyl]sulfonyl]-2-(2,2,4-trimethylpyrrolidin-1-yl)pyridine-3-carboxamide], for which, under setting [2], the 30% effect concentration (EC30) lay within 3 to 10 µM.

For `COc1ccc2c(c1)CCN(c1cccc(S(=O)(=O)NC(=O)c3cccnc3N3CC(C)CC3(C)C)n1)C2` (stereo not drawn) [Compound 2260, N—[[6-(6-methoxy-3,4-dihydro-1H-isoquinolin-2-yl)-2-pyridyl]sulfonyl]-2-(2,2,4-trimethylpyrrolidin-1-yl)pyridine-3-carboxamide], under setting [2], the EC30 was below 3 µM.

With `COc1ccc(-c2ccc(C(=O)NS(=O)(=O)c3cc[nH]n3)c(Oc3c(C)cc(C)cc3C)n2)c(F)c1` [Compound 374, 6-(2-fluoro-4-methoxy-phenyl)-N-(1H-pyrazol-3-ylsulfonyl)-2-(2,4,6-trimethylphenoxy)pyridine-3-carboxamide], the EC30 entry under setting [1] is recorded as “+++ (“+++” means <3 uM)”.

In the case of `CC(C)c1cccc(-c2ccc(C(=O)NS(=O)(=O)c3ccc[nH]c3=O)c(N3C[C@@H](C)CC3(C)C)n2)c1` [Compound 2498, 6-(3-isopropylphenyl)-N-[(2-oxo-1H-pyridin-3-yl)sulfonyl]-2-[(4S)-2,2,4-trimethylpyrrolidin-1-yl]pyridine-3-carboxamide], under setting [2], the EC30 was below 3 µM.

Regarding `Cc1cc(C)c(Oc2nc3c(cc2C(=O)NS(=O)(=O)c2cccc(N)n2)CCC(C)(C)C3)c(C)c1` [Compound 665, N-[(6-amino-2-pyridyl)sulfonyl]-7,7-dimethyl-2-(2,4,6-trimethylphenoxy)-6,8-dihydro-5H-quinoline-3-carboxamide], the 30% effect concentration (EC30) result under setting [1] is recorded as “+++ (“+++” means <3 uM)”.

For the molecule `Cc1cccc(C)c1Cn1nc(C(C)(C)C)cc1C(=O)NS(=O)(=O)c1cccc2c1ccn2C` [Compound 210, 5-tert-butyl-2-[(2,6-dimethylphenyl)methyl]-N-(1-methylindol-4-yl)sulfonyl-pyrazole-3-carboxamide], the EC30 result under setting [1] is given as “+++ (“+++” means <3 uM)”.

As to `COc1cccc2c1cc(C(=O)NS(=O)(=O)c1cccc(N)c1)n2Cc1c(C)cccc1C` [Compound 168, N-(3-aminophenyl)sulfonyl-1-[(2,6-dimethylphenyl)methyl]-4-methoxy-indole-2-carboxamide], the EC30 entry under setting [1] was “+++ (“+++” means <3 uM)”.

As for `C[C@@H]1CN(c2nc(-c3ccc(F)c(F)c3)ccc2C(=O)NS(=O)(=O)c2cccc(N)n2)C(C)(C)C1` [Compound 2559, N-[(6-amino-2-pyridyl)sulfonyl]-6-(3,4-difluorophenyl)-2-[(4S)-2,2,4-trimethylpyrrolidin-1-yl]pyridine-3-carboxamide], the EC30 under setting [2] was below 3 µM.

Regarding `CC(C)(C)c1ccc(C(=O)NS(=O)(=O)c2cccc(N)c2)c(-c2ccc(Cl)cc2)n1` [Compound 223, N-(3-aminophenyl)sulfonyl-6-tert-butyl-2-(4-chlorophenyl)pyridine-3-carboxamide], the concentration for an effect of 30% (EC30) result under setting [1] is “+++ (“+++” means <3 uM)”.

For `C[C@@H]1CC[C@H](C)N1c1nc(-c2ccc(OCC3CC3)nc2)ccc1C(=O)NS(=O)(=O)c1cccc(N)n1` [Compound 789, N-[(6-amino-2-pyridyl)sulfonyl]-6-[6-(cyclopropylmethoxy)-3-pyridyl]-2-[(2S,5R)-2,5-dimethylpyrrolidin-1-yl]pyridine-3-carboxamide], under setting [1], the EC30 result was “+++ (“+++” means <3 uM)”.

For the molecule `C[C@H](COCc1ccccc1)Oc1ccc(-c2ccc(C(=O)NS(=O)(=O)c3cccc(N)n3)c(N3[C@H](C)CC[C@@H]3C)n2)cn1` [Compound 576, N-[(6-amino-2-pyridyl)sulfonyl]-6-[6-[(1R)-2-benzyloxy-1-methyl-ethoxy]-3-pyridyl]-2-[(2S,5R)-2,5-dimethylpyrrolidin-1-yl]pyridine-3-carboxamide], under setting [1], the EC30 result is on record as “+++ (“+++” means <3 uM)”.

For `Cc1cc(-c2ccc(C(=O)NS(=O)(=O)c3cccc(N)n3)c(N3C[C@@H](C)CC3(C)C)n2)cc(OC(C)C)n1` [Compound 2306, N-[(6-amino-2-pyridyl)sulfonyl]-6-(2-isopropoxy-6-methyl-4-pyridyl)-2-[(4S)-2,2,4-trimethylpyrrolidin-1-yl]pyridine-3-carboxamide], the concentration for an effect of 30% (EC30) under setting [2] is below 3 µM.

Turning to `COc1cc(-c2ccc(C(=O)NS(=O)(=O)c3cccc(N)n3)c(Oc3c(C)cc(C)cc3C)n2)ccc1O` [Compound 768, N-[(6-amino-2-pyridyl)sulfonyl]-6-(4-hydroxy-3-methoxy-phenyl)-2-(2,4,6-trimethylphenoxy)pyridine-3-carboxamide], the EC30 result under setting [1] is “++ (“++” means between 3 uM and 10 uM)”.

Take `COc1ccc(Cl)cc1Oc1cccc(S(=O)(=O)NC(=O)c2cccnc2N2CC(C)CC2(C)C)n1` (stereo not drawn) [Compound 2503, N—[[6-(5-chloro-2-methoxy-phenoxy)-2-pyridyl]sulfonyl]-2-(2,2,4-trimethylpyrrolidin-1-yl)pyridine-3-carboxamide]: under setting [2], the 30% effect concentration (EC30) is below 3 µM.

`Cc1ccccc1C(C)Oc1nc(-c2cc(F)cc(OCC(C)C)c2)ccc1C(=O)NS(=O)(=O)c1cccc(N)n1` (stereo not drawn) [Compound 782, N-[(6-amino-2-pyridyl)sulfonyl]-6-(3-fluoro-5-isobutoxy-phenyl)-2-[1-(o-tolyl)ethoxy]pyridine-3-carboxamide]: the concentration for an effect of 30% (EC30) entry under setting [1] is “+++ (“+++” means <3 uM)”.

For `CC1CN(c2ncccc2C(=O)NS(=O)(=O)c2cccc(Oc3ccc(C#N)cc3)n2)C(C)(C)C1` (stereo not drawn) [Compound 2076, N—[[6-(4-cyanophenoxy)-2-pyridyl]sulfonyl]-2-(2,2,4-trimethylpyrrolidin-1-yl)pyridine-3-carboxamide], under setting [2], the EC30 was below 3 µM.

Regarding `CC1CN(c2ncccc2C(=O)NS(=O)(=O)c2cccc(NCCCCNC(=O)OC(C)(C)C)n2)C(C)(C)C1` (stereo not drawn) [Compound 2335, tert-butyl N—[4-[[6-[[2-(2,2,4-trimethylpyrrolidin-1-yl)pyridine-3-carbonyl]sulfamoyl]-2-pyridyl]amino]butyl]carbamate], the EC30 under setting [2] fell in the range of 3 to 10 µM.

Turning to `CCOc1ccc(-c2cc(C(=O)NS(=O)(=O)c3ccccc3)n(Cc3c(C)cccc3C)n2)cc1` [Compound 29, N-(benzenesulfonyl)-2-[(2,6-dimethylphenyl)methyl]-5-(4-ethoxyphenyl)pyrazole-3-carboxamide], under setting [1], the concentration for an effect of 30% (EC30) result was “+++ (“+++” means <3 uM)”.

In the case of `COc1cccc(-c2ccc(C(=O)NS(=O)(=O)c3ccccc3)c(N3C[C@@H](C)CC3(C)C)n2)n1` [Compound 2411, N-(benzenesulfonyl)-6-(6-methoxy-2-pyridyl)-2-[(4S)-2,2,4-trimethylpyrrolidin-1-yl]pyridine-3-carboxamide], the EC30 under setting [2] is below 3 µM.

Consider `CC(C)COc1cc(F)cc(-c2ccc(C(=O)NS(=O)(=O)c3cccc(N)n3)c(N3C(C)CC(c4ccccc4)C3C)n2)c1` (stereo not drawn) [Compound 711, N-[(6-amino-2-pyridyl)sulfonyl]-2-(2,5-dimethyl-3-phenyl-pyrrolidin-1-yl)-6-(3-fluoro-5-isobutoxy-phenyl)pyridine-3-carboxamide], for which, under setting [1], the EC30 entry is “+++ (“+++” means <3 uM)”.

With `CC1CN(c2ncccc2C(=O)NS(=O)(=O)c2cccc(Oc3cccc(Cl)c3Cl)n2)C(C)(C)C1` (stereo not drawn) [Compound 2720], the 30% effect concentration (EC30) under setting [2] is below 3 µM.

In the case of `Cc1cc(C)c(Oc2nc(-c3ccccc3)ccc2C(=O)NS(=O)(=O)c2cccc(N)c2)c(C)c1` [Compound 231, N-(3-aminophenyl)sulfonyl-6-phenyl-2-(2,4,6-trimethylphenoxy)pyridine-3-carboxamide], the 30% effect concentration (EC30) entry under setting [1] is given as “+++ (“+++” means <3 uM)”.

As to `Cc1cc(C)c(CN2c3ccccc3C[C@@H]2C(=O)NS(=O)(=O)c2cccc(N)n2)c(C)c1` [Compound 462, (2R)—N-[(6-amino-2-pyridyl)sulfonyl]-1-[(2,4,6-trimethylphenyl)methyl]indoline-2-carboxamide], the EC30 entry under setting [1] is recorded as “+++ (“+++” means <3 uM)”.

As to `Cc1cccc(C)c1Oc1nc(C(C)(C)C)ccc1C(=O)NS(=O)(=O)c1cccc(N)c1` [Compound 286, N-(3-aminophenyl)sulfonyl-6-tert-butyl-2-(2,6-dimethylphenoxy)pyridine-3-carboxamide], the 30% effect concentration (EC30) result under setting [1] is given as “+++ (“+++” means <3 uM)”.

Consider `COc1cc(OC)cc(Oc2cccc(S(=O)(=O)NC(=O)c3cccnc3N3CC(C)CC3(C)C)n2)c1` (stereo not drawn) [Compound 2293, N—[[6-(3,5-dimethoxyphenoxy)-2-pyridyl]sulfonyl]-2-(2,2,4-trimethylpyrrolidin-1-yl)pyridine-3-carboxamide], for which, under setting [2], the EC30 was below 3 µM.

With `Cc1cc(C)cc(-c2nc(C(C)(C)C)ccc2C(=O)NS(=O)(=O)c2cccc(N)c2)c1` [Compound 52, N-(3-aminophenyl)sulfonyl-6-tert-butyl-2-(3,5-dimethylphenyl)pyridine-3-carboxamide], under setting [1], the 30% effect concentration (EC30) result is “+++ (“+++” means <3 uM)”.

On to `Cc1ccc(Oc2nc(-c3cnn(CC(C)C)c3)ccc2C(=O)NS(=O)(=O)c2nccnc2N)c(C)c1` [Compound 713, N-(3-aminopyrazin-2-yl)sulfonyl-2-(2,4-dimethylphenoxy)-6-(1-isobutylpyrazol-4-yl)pyridine-3-carboxamide], for which the EC30 entry under setting [1] is “++ (“++” means between 3 uM and 10 uM)”.
